Measured values reported in PMC8698759, “Gold(I) Complexes Bearing Alkylated 1,3,5-Triaza-7-phosphaadamantane Ligands as Thermoresponsive Anticancer Agents in Human Colon Cells” (Biomedicines, 2021).
Like-named read-outs stand apart in the source and are kept apart here.

How the values were obtained:
Recombinant Human TrxR1 = molecular target: T1, Recombinant Human TrxR1 (Homo sapiens, UniProt Q16881); assay: Thioredoxin reductase 1 (TrxR1) activity assay; assay type: biochemical; settings: auranofin 25 µM; 3a and 3b at IC50 concentrations
T1 construct: purchased Sigma-Aldrich SRP6081
T1 sequence (Q16881 151-649 limits assumed): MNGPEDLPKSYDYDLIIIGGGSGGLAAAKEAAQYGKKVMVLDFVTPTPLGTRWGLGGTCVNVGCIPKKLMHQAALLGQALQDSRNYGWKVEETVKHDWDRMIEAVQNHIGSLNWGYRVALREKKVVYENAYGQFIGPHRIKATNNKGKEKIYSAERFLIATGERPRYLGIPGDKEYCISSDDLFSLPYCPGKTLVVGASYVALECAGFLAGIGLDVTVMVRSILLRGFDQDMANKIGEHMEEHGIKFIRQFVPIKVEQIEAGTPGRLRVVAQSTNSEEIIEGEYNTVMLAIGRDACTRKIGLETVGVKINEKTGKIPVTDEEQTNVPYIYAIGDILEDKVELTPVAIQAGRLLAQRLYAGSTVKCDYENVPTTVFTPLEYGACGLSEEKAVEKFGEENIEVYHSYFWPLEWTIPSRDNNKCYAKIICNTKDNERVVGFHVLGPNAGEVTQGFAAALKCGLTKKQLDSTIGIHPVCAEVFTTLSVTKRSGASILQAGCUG
Protocol: Recombinant Human TrxR1 (Sigma-Aldrich SRP6081, St. Louis, MO, USA) was incubated in a 96 well plate with different concentration of Au complex previously dissolved in 25 μL of PBS at pH 7.4. The cell solution was incubated in shake motion for 5 min at 37 °C. After incubation time, procedure in Thioredoxin Reductase Assay Kit (Sigma-Aldrich CS0170, St. Louis, MO, USA) was followed. Finally, reaction was started by adding 6 μL DNTB and absorbance at 405 nm was recorded every 30 s for 22 min as a measure of Thioredoxin Reductase Activity.

[1] = Distribution coefficient (logD7.4), shake-flask n-octanol/buffered water; assay type: physicochemical; settings: n-octanol/phosphate buffered saline pH 7.4, shake-flask
Protocol: The n-octanol-water coefficients of the phosphane derivatives were determined as previously reported using a shake-flask method. Briefly: Buffered-saline distilled water (100 mL, phosphate buffer [PO4^3−] = 10 mM, [NaCl] = 0.15 M, pH 7.4) and n-octanol (100 mL) were shaken together for 72 h to allow saturation of both phases. 1 mg of the complexes was dissolved in 5 mL of the aqueous phase and 5 mL of the organic phase were added, mixing for 10 min. The concentration of the complexes in the organic and aqueous phases were then determined using UV absorbance spectroscopy. LogD7.4 = log{[compound(organic phase)]/[compound(aqueous phase)]}.
The lipophilicity can be measured by the partition coefficient water/n-octanol, logD, by experimental procedures such as the shake flask method, which affords the distribution of the drug between an equal amount of n-octanol and water (or buffered aqueous solution).

[2] = test system: caspase-3 in Caco-2 cells; assay: Determination of active caspase-3 by flow cytometry; assay type: cell-based, human; settings: Caco-2, 48 h; 3a 5.0 µM, 3b 10.2 µM
Protocol: (§1) Caco-2 cells were seeded in 75 cm^2 flask at a density of 1 × 10^4 cells/cm^2 and, 24 h later, exposed to drug panel for 48 h. Then cells were collected and processed following instructions by Sánchez-de-Diego et al. Finally, 50 µL of every sample were incubated with 5 µL anti-active caspase-3 (BD Pharmigen, Clone C92-605) and 5 µL p53 antibody (Miltenyi, Clone REA609).

Caco-2 cells [3] = assay: Intracellular ROS levels, dichlorofluorescein assay; assay type: cell-based, human; settings: for intracellular ROS levels, 1 h and 3 h: Caco-2, treated for 1 h and 3 h at IC50 values; for intracellular ROS levels, 24 h: Caco-2, treated for 24 h with IC50 values
Protocol: Caco-2 cells were seeded in 96-wells plate at a density of 4 × 10^3 cells/well and intracellular ROS levels were determined with the dichlorofluorescein assay. Cells were exposed to drug panel for 1, 3 and 24 h and then incubated with 20 µM 2′-7′-dichlorofluorescein diacetate (DCFH-DA) (Merck KGaA, Darmstadt, Germany) in DMEM. The generation of oxidised derivative DCF was monitored by measuring the increase of fluorescence for 1 h, at an emission wavelength of 520 nm and excitation of 485 nm, with a FLUOstar Omega (BMG Labtech, Ortenberg, Germany) multiplate reader. Results were expressed as percentage of fluorescence respect to control, considering fluorescence intensity as a reflection of intracellular ROS levels.

p53 in Caco-2 cells = assay: Determination of p53 by flow cytometry; assay type: cell-based, human; settings: Caco-2, 48 h, versus non-treated cells
Protocol: as §1

Caco-2 cells [4] = assay: Propidium iodide staining of DNA content and cell cycle analysis; assay type: cell-based, human; settings: 3a 5.0 µM, 3b 10.2 µM; for cells in G0-G1 phase, 40 °C / cells in G2-M phase, 40 °C / cells in S phase, 40 °C: Caco-2, 1 h at 40 °C plus 47 h at 37 °C; for cell cycle progression: Caco-2, 48 h; for cells in G0-G1 phase, 37 °C / cells in G2-M phase, 37 °C / cells in S phase, 37 °C: Caco-2, 48 h at 37 °C
Protocol: Caco-2 cells were seeded in 25 cm^2 flasks at a density of 1 × 10^4 cells/cm^2 and 24 h post-seeding, were exposed to drug panel for 48 h. Cells were fixed as described by Sánchez-de-Diego et al. before staining them with 50 μg/mL PI solution.

Caco-2/TC7 cells = assay: MTT cytotoxicity / antiproliferative assay on Caco-2/TC7 cells; assay type: cell-based, human
Protocol: Human fibroblast cells were kindly provided by Dr. Julio Montoya (Unidad de Bioquímica, Facultad de Veterinaria, Universidad de Zaragoza, Spain). Caco-2 cells (passages 40–70) and fibroblasts (passages 10–30) were maintained in a humidified atmosphere of 5% CO2 at 37 °C. Cells were grown in Dulbecco’s Modified Eagles medium (DMEM) (Gibco Invitrogen, Paisley, UK) supplemented with 20% fetal bovine serum (FBS), 1% non-essential amino acids, 1% penicillin (1000 U/mL), 1% streptomycin (1000 μg/mL) and 1% amphotericin (250 U/mL). […] Caco-2 cells were sub-cultured on 25 cm^2 plastic flasks at a density of 1.2 × 10^4 cells/cm^2, while fibroblasts were sub-cultured on 75 cm^2 plastic flasks at a density of 1 × 10^4 cells/cm^2. Culture medium was replaced every 2 days.
Gold complex was diluted in dimethyl sulfoxide (DMSO) to a stock solution at 20 mM and then re-diluted to a working solution at 2.5 mM before diluting it in cell culture medium to treat cells at desired concentrations.
The influence of hyperthermia was studied by incubating cells at 40 °C for 1 h immediately after treating them with the gold complexes.
For cytotoxicity screening assays, Caco-2 cells were seeded in 96-well plates at a density of 4 × 10^3 cells/well. Culture medium was replaced with medium containing drug panel 24 h post-seeding and cells were incubated for 72 h. In fibroblasts, culture medium containing metal gold complexes was added 10 days post-seeding. Antiproliferative effect was measured with MTT assay as previously described by Mármol et al.. […] To determine the selectivity index (SI) the IC50 value in fibroblasts was divided by IC50 value in Caco-2, obtaining a ratio cancerous/normal cells toxicity.

[5] = 37 °C values rounded, read-out: IC50 values in Caco-2
[6] = 72 h, MTT, 37 °C, mean ± SE, read-out: IC50 Caco-2/TC7 37 °C
[7] = read-out: IC50 Caco-2/TC7 40 °C, 72 h, MTT, 1 h at 40 °C immediately after treatment (hyperthermia), mean ± SE

Row | Structure (SMILES) | TrxR1 activity related to control (Recombinant Human TrxR1) | logD7.4 [1] | caspase-3 activation (cells with active caspase-3) [2] | intracellular ROS levels, 1 h and 3 h (Caco-2 cells [3]) | intracellular ROS levels, 24 h (Caco-2 cells [3]) | p53 accumulation (p53 in Caco-2 cells) | cells in G0-G1 phase, 40 °C (Caco-2 cells [4]) [%] | cells in G2-M phase, 40 °C (Caco-2 cells [4]) [%] | cells in S phase, 40 °C (Caco-2 cells [4]) [%] | cell cycle progression (Caco-2 cells [4]) | cells in G0-G1 phase, 37 °C (Caco-2 cells [4]) [%] | cells in G2-M phase, 37 °C (Caco-2 cells [4]) [%] | cells in S phase, 37 °C (Caco-2 cells [4]) [%] | IC50 (Caco-2/TC7 cells; [5]) [µM] | IC50 (Caco-2/TC7 cells; [6]) [µM] | IC50 (Caco-2/TC7 cells; [7]) [µM]
1 | FC(F)(F)C(F)(F)C(F)(F)C(F)(F)C(F)(F)C(F)(F)CC[N+]12CN3CN(C1)C[P+]([Au-][S]c1ccccn1)(C3)C2.O=S(=O)([O-])C(F)(F)F [Complex 3b, [Au(C5H5NS)(PTA-CH2CH2(CF2)5CF3)](TfO)] | Inhibitory effect | 0.44 | could induce caspase-3 activation | did not bring significant changes | significant increase | could induce p53 accumulation | 48.1 | 17.2 | 34.7 | increasing amount of cells in G0-G1 phase | 41.4 | 12.5 | 46.1 | 5.1 | 5.11 ± 1.25 | 4.26 ± 0.34
2 | CCCCCCCC[N+]12CN3CN(C1)C[P+]([Au-][S]c1ccccn1)(C3)C2.[I-] [Complex 3a, [Au(C5H5NS)(PTA-CH2(CH2)6CH3)]I] | Inhibitory effect | 0.35 | could induce caspase-3 activation | did not bring significant changes | significant increase | could induce p53 accumulation | 63.7 | 27.78 | 8.56 | increasing amount of cells in G0-G1 phase | 43.3 | 14.4 | 42.4 | 2.5 | 2.49 ± 0.31 | 2.05 ± 0.32
